Where two headings read alike, the source gives them in different places.
How the values were obtained:
Test in all cases: Test C pre/postemergence
Assay type in all cases: in vivo
[1] = test system: cocklebur (Xanthium strumarium); conditions: Xanthium strumarium; for pest or weed control at 62 g/ha: 62 g ai/ha; for pest or weed control at 125 g/ha: 125 g ai/ha; for pest or weed control at 250 g/ha: 250 g ai/ha; for pest or weed control at 500 g/ha: 500 g ai/ha
In short: (§1)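 We sprayed seeded pots preemergence and 2–18 cm seedlings postemergence with test chemicals in a non-phytotoxic solvent mixture including surfactant. Greenhouse plants were visually compared with untreated controls at 12 to 14 days and scored 0 (no effect) to 100 (complete control).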

[2] = test system: Surinam grass (Brachiaria decumbens); conditions: Urochloa decumbens; for pest or weed control at 125 g/ha: 125 g ai/ha; for pest or weed control at 500 g/ha: 500 g ai/ha; for pest or weed control at 250 g/ha: 250 g ai/ha
In short: as §1

[3] = test system: eastern black nightshade (Solanum ptycanthum); conditions: Solanum, pre-emergence, Preemergence, read-out: Plant response rating, Nightshade
In short: as §1

corn (Zea mays) = conditions: Zea mays; for Corn plant response rating (crop injury, 0 = no effect, 100 = complete kill) at 62 g/ha: 62 g ai/ha; for Corn plant response rating (crop injury, 0 = no effect, 100 = complete kill) at 125 g/ha: 125 g ai/ha; for Corn plant response rating (crop injury, 0 = no effect, 100 = complete kill) at 250 g/ha: 250 g ai/ha; for Corn plant response rating (crop injury, 0 = no effect, 100 = complete kill) at 500 g/ha: 500 g ai/ha
In short: as §1

[4] = test system: morningglory (Ipomoea coccinea); conditions: Ipomoea; for pest or weed control at 62 g/ha: 62 g ai/ha; for pest or weed control at 125 g/ha: 125 g ai/ha; for pest or weed control at 250 g/ha: 250 g ai/ha; for pest or weed control at 500 g/ha: 500 g ai/ha
In short: as §1

[5] = test system: common (oilseed) sunflower (Helianthus annuus); conditions: Helianthus annuus, pre-emergence, Preemergence, read-out: Plant response rating, Sunflower
In short: as §1

[6] = test system: common ragweed (Ambrosia elatior); conditions: Ambrosia artemisiifolia; for pest or weed control at 62 g/ha: 62 g ai/ha; for pest or weed control at 125 g/ha: 125 g ai/ha; for pest or weed control at 250 g/ha: 250 g ai/ha; for pest or weed control at 500 g/ha: 500 g ai/ha
In short: as §1

[7] = test system: woolly cupgrass (Eriochloa villosa); conditions: Eriochloa villosa; for pest or weed control at 62 g/ha: 62 g ai/ha; for pest or weed control at 125 g/ha: 125 g ai/ha; for pest or weed control at 250 g/ha: 250 g ai/ha; for pest or weed control at 500 g/ha: 500 g ai/ha
In short: as §1

[8] = test system: pigweed (Amaranthus retroflexus); conditions: Amaranthus retroflexus; for pest or weed control at 62 g/ha: 62 g ai/ha; for pest or weed control at 125 g/ha: 125 g ai/ha; for pest or weed control at 250 g/ha: 250 g ai/ha; for pest or weed control at 500 g/ha: 500 g ai/ha
In short: as §1

[9] = test system: bermudagrass (Cynodon dactylon); conditions: Cynodon dactylon; for pest or weed control at 62 g/ha: 62 g ai/ha; for pest or weed control at 125 g/ha: 125 g ai/ha; for pest or weed control at 250 g/ha: 250 g ai/ha; for pest or weed control at 500 g/ha: 500 g ai/ha
In short: as §1

kochia (Kochia scoparia) = conditions: Bassia scoparia, post-emergence, Postemergence
In short: as §1

[10] = test system: johnsongrass (Sorghum halepense); conditions: Sorghum halepense; for pest or weed control at 62 g/ha: 62 g ai/ha; for pest or weed control at 125 g/ha: 125 g ai/ha; for pest or weed control at 250 g/ha: 250 g ai/ha; for pest or weed control at 500 g/ha: 500 g ai/ha
In short: as §1

[11] = post-emergence, Postemergence, scale 0 to 100 (0 no effect, 100 complete control), read-out: Cocklebur plant response rating
[12] = post-emergence, Postemergence, scale 0 to 100, read-out: Plant response rating, Cocklebur
[13] = pre-emergence, Preemergence, scale 0 to 100, read-out: Plant response rating, Cocklebur
[14] = post-emergence, Postemergence, scale 0 to 100, read-out: Plant response rating, Surinam Grass
[15] = pre-emergence, Preemergence, scale 0 to 100, read-out: Plant response rating, Surinam Grass
[16] = 62 g ai/ha, scale 0 to 100, 0 no effect, 100 complete control
[17] = post-emergence, Postemergence, scale 0 to 100 (0 no effect, 100 complete control), read-out: Corn plant response rating
[18] = post-emergence, Postemergence, scale 0 to 100
[19] = pre-emergence, Preemergence, scale 0 to 100
[20] = post-emergence, Postemergence, scale 0 to 100 (0 no effect, 100 complete control), read-out: Morningglory plant response rating
[21] = post-emergence, Postemergence, scale 0 to 100, read-out: Plant response rating, Morningglory
[22] = pre-emergence, Preemergence, scale 0 to 100, read-out: Plant response rating, Morningglory
[23] = post-emergence, Postemergence, scale 0 to 100 (0 no effect, 100 complete control), read-out: Ragweed plant response rating
[24] = post-emergence, Postemergence, scale 0 to 100, read-out: Plant response rating, Ragweed
[25] = pre-emergence, Preemergence, scale 0 to 100, read-out: Plant response rating, Ragweed
[26] = post-emergence, Postemergence, scale 0 to 100 (0 no effect, 100 complete control), read-out: Cupgrass, Woolly plant response rating
[27] = post-emergence, Postemergence, scale 0 to 100, read-out: Plant response rating, Cupgrass, Woolly
[28] = pre-emergence, Preemergence, scale 0 to 100, read-out: Plant response rating, Cupgrass, Woolly
[29] = post-emergence, Postemergence, scale 0 to 100 (0 no effect, 100 complete control), read-out: Pigweed plant response rating
[30] = post-emergence, Postemergence, scale 0 to 100, read-out: Plant response rating, Pigweed
[31] = pre-emergence, Preemergence, scale 0 to 100, read-out: Plant response rating, Pigweed
[32] = post-emergence, Postemergence, scale 0 to 100 (0 no effect, 100 complete control), read-out: Bermudagrass plant response rating
[33] = post-emergence, Postemergence, scale 0 to 100, read-out: Plant response rating, Bermudagrass
[34] = pre-emergence, Preemergence, scale 0 to 100, read-out: Plant response rating, Bermudagrass
[35] = post-emergence, Postemergence, scale 0 to 100 (0 no effect, 100 complete control), read-out: Johnsongrass plant response rating
[36] = post-emergence, Postemergence, scale 0 to 100, read-out: Plant response rating, Johnsongrass
[37] = pre-emergence, Preemergence, scale 0 to 100, read-out: Plant response rating, Johnsongrass

## Nc1nc(C2CC2)nc(C(=O)OCc2ccccc2)c1Br [Compound 22, phenylmethyl 6-amino-5-bromo-2-cyclopropyl-4-pyrimidinecarboxylate]
[1]; [11]
  pest or weed control at 62 g/ha: 90%
  pest or weed control at 125 g/ha: 90%
[1]; [12]
  pest or weed control at 250 g/ha: 100%
  pest or weed control at 500 g/ha: 100%
[1]; pre-emergence, Preemergence, scale 0 to 100, 0 no effect, 100 complete control, read-out: Plant response rating, Cocklebur
  pest or weed control at 62 g/ha: 90%
[1]; [13]
  pest or weed control at 125 g/ha: 95%
  pest or weed control at 250 g/ha: 100%
  pest or weed control at 500 g/ha: 100%
[2]; post-emergence, Postemergence, scale 0 to 100 (0 no effect, 100 complete control), read-out: Surinam Grass plant response rating
  pest or weed control at 125 g/ha: 60%
[2]; [14]
  pest or weed control at 500 g/ha: 85%
  pest or weed control at 250 g/ha: 85%
[2]; post-emergence, Postemergence, 62 g ai/ha, scale 0 to 100 (0 no effect, 100 complete control), read-out: Surinam Grass plant response rating
  pest or weed control at 62 g/ha: 55%
[2]; [15]
  pest or weed control at 125 g/ha: 90%
  pest or weed control at 250 g/ha: 100%
  pest or weed control at 500 g/ha: 100%
[3]; [16]
  pest or weed control at 62 g/ha: 100%
[3]; 125 g ai/ha, scale 0 to 100
  pest or weed control at 125 g/ha: 100%
[3]; 250 g ai/ha, scale 0 to 100
  pest or weed control at 250 g/ha: 100%
[3]; 500 g ai/ha, scale 0 to 100
  pest or weed control at 500 g/ha: 100%
Corn (Zea mays); [17]
  Corn plant response rating (crop injury, 0 = no effect, 100 = complete kill) at 62 g/ha: 30%
  Corn plant response rating (crop injury, 0 = no effect, 100 = complete kill) at 125 g/ha: 40%
Corn (Zea mays); [18]
  Corn plant response rating (crop injury, 0 = no effect, 100 = complete kill) at 250 g/ha: 60%
  Corn plant response rating (crop injury, 0 = no effect, 100 = complete kill) at 500 g/ha: 65%
Corn (Zea mays); pre-emergence, Preemergence, scale 0 to 100, 0 no effect, 100 complete control, read-out: Plant response rating, Corn
  Corn plant response rating (crop injury, 0 = no effect, 100 = complete kill) at 62 g/ha: 40%
Corn (Zea mays); pre-emergence, Preemergence, scale 0 to 100, read-out: Plant response rating, Corn
  Corn plant response rating (crop injury, 0 = no effect, 100 = complete kill) at 125 g/ha: 50%
Corn (Zea mays); [19]
  Corn plant response rating (crop injury, 0 = no effect, 100 = complete kill) at 250 g/ha: 65%
  Corn plant response rating (crop injury, 0 = no effect, 100 = complete kill) at 500 g/ha: 65%
[4]; [20]
  pest or weed control at 62 g/ha: 90%
  pest or weed control at 125 g/ha: 90%
[4]; [21]
  pest or weed control at 250 g/ha: 95%
  pest or weed control at 500 g/ha: 100%
[4]; pre-emergence, Preemergence, scale 0 to 100, 0 no effect, 100 complete control, read-out: Plant response rating, Morningglory
  pest or weed control at 62 g/ha: 100%
[4]; [22]
  pest or weed control at 125 g/ha: 100%
  pest or weed control at 250 g/ha: 100%
  pest or weed control at 500 g/ha: 100%
[5]; [16]
  pest or weed control at 62 g/ha: 90%
[5]; 125 g ai/ha, scale 0 to 100
  pest or weed control at 125 g/ha: 95%
[5]; 250 g ai/ha, scale 0 to 100
  pest or weed control at 250 g/ha: 100%
[5]; 500 g ai/ha, scale 0 to 100
  pest or weed control at 500 g/ha: 100%
[6]; [23]
  pest or weed control at 62 g/ha: 80%
  pest or weed control at 125 g/ha: 85%
[6]; [24]
  pest or weed control at 250 g/ha: 90%
  pest or weed control at 500 g/ha: 90%
[6]; pre-emergence, Preemergence, scale 0 to 100, 0 no effect, 100 complete control, read-out: Plant response rating, Ragweed
  pest or weed control at 62 g/ha: 90%
[6]; [25]
  pest or weed control at 125 g/ha: 100%
  pest or weed control at 250 g/ha: 100%
  pest or weed control at 500 g/ha: 100%
[7]; [26]
  pest or weed control at 62 g/ha: 60%
  pest or weed control at 125 g/ha: 60%
[7]; [27]
  pest or weed control at 250 g/ha: 60%
  pest or weed control at 500 g/ha: 65%
[7]; pre-emergence, Preemergence, scale 0 to 100, 0 no effect, 100 complete control, read-out: Plant response rating, Cupgrass, Woolly
  pest or weed control at 62 g/ha: 40%
[7]; [28]
  pest or weed control at 125 g/ha: 95%
  pest or weed control at 250 g/ha: 95%
  pest or weed control at 500 g/ha: 95%
[8]; [29]
  pest or weed control at 62 g/ha: 85%
  pest or weed control at 125 g/ha: 100%
[8]; [30]
  pest or weed control at 250 g/ha: 100%
  pest or weed control at 500 g/ha: 100%
[8]; pre-emergence, Preemergence, scale 0 to 100, 0 no effect, 100 complete control, read-out: Plant response rating, Pigweed
  pest or weed control at 62 g/ha: 90%
[8]; [31]
  pest or weed control at 125 g/ha: 100%
  pest or weed control at 250 g/ha: 100%
  pest or weed control at 500 g/ha: 100%
[9]; [32]
  pest or weed control at 62 g/ha: 50%
  pest or weed control at 125 g/ha: 60%
[9]; [33]
  pest or weed control at 250 g/ha: 60%
  pest or weed control at 500 g/ha: 60%
[9]; pre-emergence, Preemergence, scale 0 to 100, 0 no effect, 100 complete control, read-out: Plant response rating, Bermudagrass
  pest or weed control at 62 g/ha: 0%
[9]; [34]
  pest or weed control at 125 g/ha: 50%
  pest or weed control at 250 g/ha: 50%
  pest or weed control at 500 g/ha: 90%
Kochia (Kochia scoparia); 62 g ai/ha, scale 0 to 100 (0 no effect, 100 complete control), read-out: Kochia plant response rating
  pest or weed control at 62 g/ha: 95%
Kochia (Kochia scoparia); 125 g ai/ha, scale 0 to 100 (0 no effect, 100 complete control), read-out: Kochia plant response rating
  pest or weed control at 125 g/ha: 100%
Kochia (Kochia scoparia); 250 g ai/ha, scale 0 to 100, read-out: Plant response rating, Kochia
  pest or weed control at 250 g/ha: 100%
Kochia (Kochia scoparia); 500 g ai/ha, scale 0 to 100, read-out: Plant response rating, Kochia
  pest or weed control at 500 g/ha: 100%
[10]; [35]
  pest or weed control at 62 g/ha: 40%
  pest or weed control at 125 g/ha: 80%
[10]; [36]
  pest or weed control at 250 g/ha: 80%
  pest or weed control at 500 g/ha: 100%
[10]; pre-emergence, Preemergence, scale 0 to 100, 0 no effect, 100 complete control, read-out: Plant response rating, Johnsongrass
  pest or weed control at 62 g/ha: 80%
[10]; [37]
  pest or weed control at 125 g/ha: 100%
  pest or weed control at 250 g/ha: 100%
  pest or weed control at 500 g/ha: 100%

Reference: patent US8802597B2, “Herbicidal pyrimidines” (E I du Pont de Nemours and Company, priority 2003, dated 2014)
